“And” between values parts separate entries of the source, which are not always exact repeats. Equal entries are not always repeated. *1 amine or outer side, *2 acyl side, *3 side chain or, on linkers, in order; H or OH if unused. Where no end group is shown, it is not given here. [ ]: non-standard residue; d: D form. Benzoyl(5-NH,2-NO2) = O=C(c1cc(N[*:1])ccc1[N+](=O)[O-])[*:2]; 2Abz = Nc1ccccc1C(=O)O
Columns and labels:
[1] = tested on: proteolytic enzymes in urine from a subject suffering from intestinal cancer; assay: Hydrolysis of the chromogenic substrate in urine from subjects with intestinal cancer (absorbance at 405 nm); format: biochemical, human; conditions: for absorbance: 405 nm, 60 minutes, 37° C., pH 8.0, triplicate
Protocol: The activity of the novel compounds according to the invention was studied in a group of 20 subjects diagnosed with intestinal cancer using the representative compound according to the invention. […] The remaining compounds according to the invention are characterized by the analogous mechanism of action. For this purpose, the representative compound according to the invention, ABZ^1-Asn^2-Phe^3-Ser^4-Pro^5-ANB^6—NH2, was dissolved in dimethyl sulfoxide (at a concentration of 0.5 mg/mL) and then 50 μL of the solution was mixed with 120 μL of a buffer (200 mM Tris-HCl, pH 8.0) and 80 μL of urine from a subject suffering from intestinal cancer. The measurement was performed on a 96-well plate designed for measuring absorbance and each sample was analysed in triplicate at the temperature of 37° C. The duration of the measurement was 60 minutes. During the measurement, the wavelength characteristic for the chromophore (ANB-NH2) being released was monitored at the wavelength 405 nm (range 380-430 nm).

[2] = tested on: urine samples taken from healthy persons; assay: Hydrolysis of the chromogenic substrate in urine from healthy subjects (absorbance at 405 nm); format: biochemical, human; conditions: for absorbance: healthy subject, 405 nm, 60 minutes, 37° C., pH 8.0, triplicate
[3] = tested on: urine taken from a person diagnosed with intestinal cancer; assay: RP HPLC analysis of substrate cleavage in urine from a person with intestinal cancer; format: biochemical, human; conditions: randomly selected urine sample from a person diagnosed with intestinal cancer
[4] = tested on: at least one enzyme of the studied material; assay: Dependence of substrate hydrolysis on reaction pH; format: biochemical; conditions: FIG. 4
Protocol: Furthermore, measurements concerning the dependence of the proteolytic activity of the representative compound according to the invention on the reaction pH were performed.

For “ABZ-Asn-Phe-Ser-Pro-ANB-NH2 ([2Abz]NFSP-{Benzoyl(5-NH,2-NO2)-NH2}) [chromogenic/fluorogenic peptide substrate; ABZ is 2-aminobenzoic acid, ANB-NH2 is amide of 5-amino-2-nitrobenzoic acid]”, the “cleavage of the substrate” value ([1]; all samples 1-20 from persons suffering from intestinal cancer) was “underwent cleavage”, the absorbance ([1]; urine sample 3, intestinal cancer) was 0.035 and 0.034 and 0.036 and the absorbance ([1]; urine sample 4, intestinal cancer) was 0.0314 and 0.0313 and 0.0385. The absorbance ([1]; urine sample 7, intestinal cancer) was 0.041 and 0.039 and 0.04, the absorbance ([1]; urine sample 8, intestinal cancer) was 0.0257 and 0.0219 and 0.0258 and the absorbance ([1]; urine sample 9, intestinal cancer) was 0.056 and 0.064 and 0.06. For the same substance, the absorbance ([1]; urine sample 10, intestinal cancer) was 0.025 and 0.024 and 0.026, the absorbance ([1]; urine sample 11, intestinal cancer) was 0.015 and 0.016 and 0.027 and the absorbance ([1]; urine sample 12, intestinal cancer) was 0.0916 and 0.0979 and 0.101. The absorbance ([1]; urine sample 13, intestinal cancer) was 0.046 and 0.0337 and 0.0461, the absorbance ([1]; urine sample 14, intestinal cancer) was 0.025 and 0.018 and 0.0182 and the absorbance ([1]; urine sample 15, intestinal cancer) was 0.031 and 0.028 and 0.02. For the same substance, the absorbance ([1]; urine sample 16, intestinal cancer) was 0.0183 and 0.0293 and 0.0246, the absorbance ([1]; urine sample 17, intestinal cancer) was 0.073 and 0.07 and 0.046 and the absorbance ([1]; urine sample 18, intestinal cancer) was 0.016 and 0.0186 and 0.0202. For the same substance, the absorbance ([1]; urine sample 19, intestinal cancer) was 0.036 and 0.04 and 0.038, the absorbance ([2]; urine sample 1Z) was 0.00000 and the absorbance ([2]; urine sample 2Z) was 0.00000. The absorbance ([2]; urine sample 3Z) was 0.00000, the absorbance ([2]; urine sample 4Z) was 0.00000 and the absorbance ([2]; urine sample 5Z) was 0.00000. It also gave an absorbance ([2]; urine sample 6Z) of 0.00000, an absorbance ([2]; urine sample 7Z) of 0.00000 and an absorbance ([2]; urine sample 8Z) of 0.00000. It also gave an absorbance ([2]; urine sample 9Z) of 0.00000, an absorbance ([2]; urine sample 10Z) of 0.00000 and an absorbance ([2]; urine sample 11Z) of 0.00000. For the same substance, the absorbance ([2]; urine sample 12Z) was 0.00000, the absorbance ([2]; urine sample 13Z) was 0.00000 and the absorbance ([2]; urine sample 14Z) was 0.00000. The absorbance ([2]; urine sample 15Z) was 0.00000, the absorbance ([2]; urine sample 16Z) was 0.00000 and the absorbance ([2]; urine sample 17Z) was 0.00000. It also gave an absorbance ([2]; urine sample 18Z) of 0.00000, an absorbance ([2]; urine sample 19Z) of 0.00000 and an absorbance ([2]; urine sample 20Z) of 0.00000. For the same substance, the “increase in absorbance / hydrolysis of the tested compound” value ([2]; urine samples from healthy persons 1Z to 20Z) was “does not lead to an increase in absorbance”, the “cleavage products by RP HPLC” value [3] was “cleaves into the peptide fragment ABZ-Asn-Phe-Ser-Pro-OH and the chromophore group of the compound (ANB-NH2)” and the “dependence of the proteolytic activity on the reaction pH” value [4] was “maximum activity at alkaline pH”.
